Assay results published in patent US12227501B2, “3-amino-2-[2-(acylamino)pyridin-4-yl]-1,5,6,7-tetrahydro-4h-pyrrolo[3,2-c]pyridin-4-one as CSNK1 inhibitors” (Bayer Aktiengesellschaft, priority 2019, dated 2025).
Values joined by “and” are separate entries in the source; they are usually repeats but may differ in a detail not shown here. Identical values can stand only once. Like-named read-outs stand apart in the source and are kept apart here.

Assays:
Assay type in all cases: biochemical
human CSNK1D = human CSNK1D (Homo sapiens (Human), UniProt P48730); test: CSNK1D Assay (ADP-Glo, 1 μM ATP); settings: read-out: CSNK1D IC50 [mol/l] (median)
human CSNK1D, sequence (P48730 whole entry): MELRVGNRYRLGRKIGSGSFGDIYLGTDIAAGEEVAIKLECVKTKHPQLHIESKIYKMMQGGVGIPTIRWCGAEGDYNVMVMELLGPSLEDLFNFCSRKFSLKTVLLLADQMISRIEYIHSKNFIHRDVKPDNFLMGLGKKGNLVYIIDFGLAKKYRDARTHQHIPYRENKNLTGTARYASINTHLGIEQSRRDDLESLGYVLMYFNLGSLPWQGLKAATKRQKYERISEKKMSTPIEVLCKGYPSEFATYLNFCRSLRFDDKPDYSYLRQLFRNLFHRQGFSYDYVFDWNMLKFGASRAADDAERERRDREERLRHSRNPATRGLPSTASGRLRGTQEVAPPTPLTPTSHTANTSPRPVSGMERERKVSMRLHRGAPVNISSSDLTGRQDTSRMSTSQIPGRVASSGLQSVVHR
In short: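 Activity is read as ADP produced, by ADP-Glo luminescence after 1 h steps at 22 °C. The reaction uses 1 μM ATP, a biotinylated peptide and insect-cell-expressed GST–CSNK1D (about 0.5 ng/μL) in pH 7.5 HEPES buffer, with 15 min compound–enzyme preincubation.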

human CSNK1A1 [1] = target: T1, human CSNK1A1 (Homo sapiens (Human), UniProt P48729); test: CSNK1A1 High ATP Assay (ADP-Glo, 1 mM ATP); settings: read-out: CSNK1A1 high ATP assay IC50 [mol/l] (median)
T1 sequence (P48729 whole entry): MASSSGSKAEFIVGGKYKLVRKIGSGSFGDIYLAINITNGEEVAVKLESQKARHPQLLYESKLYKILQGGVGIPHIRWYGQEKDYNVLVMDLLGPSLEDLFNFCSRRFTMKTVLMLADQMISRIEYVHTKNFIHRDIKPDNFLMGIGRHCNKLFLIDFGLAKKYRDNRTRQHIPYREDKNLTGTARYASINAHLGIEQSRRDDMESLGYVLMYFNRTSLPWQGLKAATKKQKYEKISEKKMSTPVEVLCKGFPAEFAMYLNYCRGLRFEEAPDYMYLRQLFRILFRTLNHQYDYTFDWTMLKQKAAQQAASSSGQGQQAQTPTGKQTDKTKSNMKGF
In short: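 Kinase activity taken as ADP generated, quantified by ADP-Glo luminescence after 1 h ATP depletion and 1 h detection at 22 °C. Enzyme is GST–full-length human CSNK1A1 (insect cell-expressed), pre-bound to compound for 15 min, with phosphopeptide substrate and 1 mM ATP.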

[2] = target: wild-type Epidermal Growth Factor Receptor (EGFR) (Homo sapiens (Human), UniProt P00533); test: WT-EGFR Kinase Assay (TR-FRET, 2 mM ATP)
wild-type Epidermal Growth Factor Receptor (EGFR), sequence (P00533 669-1210): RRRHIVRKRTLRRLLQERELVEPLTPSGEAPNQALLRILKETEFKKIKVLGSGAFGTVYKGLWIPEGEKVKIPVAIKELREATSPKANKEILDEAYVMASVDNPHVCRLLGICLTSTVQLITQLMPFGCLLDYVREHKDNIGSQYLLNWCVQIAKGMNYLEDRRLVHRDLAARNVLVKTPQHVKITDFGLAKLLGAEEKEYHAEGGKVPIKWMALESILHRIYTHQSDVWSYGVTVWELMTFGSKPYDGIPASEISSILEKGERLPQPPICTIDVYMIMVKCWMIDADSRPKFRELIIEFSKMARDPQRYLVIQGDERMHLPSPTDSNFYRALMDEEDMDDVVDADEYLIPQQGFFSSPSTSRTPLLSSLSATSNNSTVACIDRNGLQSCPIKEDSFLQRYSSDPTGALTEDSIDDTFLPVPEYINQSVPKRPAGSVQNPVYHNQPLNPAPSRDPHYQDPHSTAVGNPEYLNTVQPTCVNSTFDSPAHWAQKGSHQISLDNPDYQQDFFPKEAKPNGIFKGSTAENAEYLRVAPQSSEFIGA

human CSNK1A1 [3] = target: T1, human CSNK1A1; test: CSNK1A1 Assay 1 (ADP-Glo, 1 μM ATP); settings: substrate Btn-Ahx-SGSEGDSESGEEEG, read-out: CSNK1A1 Assay 1 IC50 [mol/l] (median)
Experimental: CSNK1A1-inhibitory activity of compounds of the present invention in presence of 1 μM adenosine-tri-phosphate (ATP) was quantified employing the CSNK1A1 assay as described in the following paragraphs. In essence, the enzyme activity is measured by quantification of the adenosine-di-phosphate (ADP), which is generated as a co-product of the enzyme reaction, via the “ADP-Glo™ Kinase Assay” kit from the company Promega. This detection system works as follows: In a first step the ATP not consumed in the kinase reaction is quantitatively converted to cAMP employing an adenylate cyclase (“ADP-Glo-reagent”), then the adenylate cyclase is stopped and the ADP generated in the kinase reaction converted to ATP which generates in a luciferase-based reaction a glow-luminescence signal (“Kinase Detection Reagent”). Recombinant fusion protein of N-terminal Glutathion-S-Transferase (GST) and full-length human CSNK1A1, expressed by baculovirus infected insect cells and purified via Glutathion affinity chromatography, was purchased from Life Technologies (product no. PV4174) and used as enzyme. As substrate for the kinase reaction the biotinylated peptide Btn-Ahx-[…] (C-terminus in amide form) was used which can be purchased e.g. from the company Biosyntan (Berlin-Buch, Germany).
For the assay 50 nl of a 100 fold concentrated solution of the test compound in DMSO was pipetted into a white 1536-well microtiter plate (Greiner Bio-One, Frickenhausen, Germany), 2 μL of a solution of CSNK1A1 in aqueous assay buffer [50 mM HEPES pH 7.5, 10% (v/v) glycerol, 10 mM MgCl2, 50 mM NaCl, 1 mM dithiothreitol, 0.01% (w/v) bovine serum albumin, 0.01% (v/v) Triton X-100] were added and the mixture was incubated for 15 min at 22° C. to allow pre-binding of the test compounds to the enzyme before the start of the kinase reaction. […] The concentration of CSNK1A1 was adjusted depending of the activity of the enzyme lot and was chosen appropriate to have the assay in the linear range, a typical concentration is 0.15 ng/μL. The reaction was stopped by the addition of 2.5 μL of “ADP-Glo-reagent” (1:1.5 fold diluted with water) and the resulting mixture was incubated at 22° C. for 1 h to convert the ATP not consumed in the kinase reaction completely […]. Subsequently 2.5 μL of the “kinase detection reagent” (1.2 fold more concentrated than recommended by the producer) were added, the resulting mixture was incubated at 22° C. for 1 h and then the luminescence measured with a suitable measurement instrument (e.g. Viewlux™ from Perkin-Elmer). The amount of emitted light was taken as a measure for the amount of ADP generated and thereby for the activity of the CSNK1A1.

human CSNK1A1 [4] = target: T1, human CSNK1A1; test: CSNK1A1 Assay 2 (ADP-Glo, 1 μM ATP); settings: substrate biotin-Ahx-KRRRAL-pS-VASLPGL, read-out: CSNK1A1 Assay 2 IC50 [mol/l] (median)
In short: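 Full-length human CSNK1A1 as an N-terminal GST fusion (baculovirus/insect cells) with biotinylated peptide substrate biotin-Ahx-KRRRAL-pS-VASLPGL and 1 μM ATP, in HEPES pH 7.5 buffer. Compounds were pre-incubated with enzyme (~0.0375 ng/μL) for 15 min at 22 °C. Generated ADP was read by ADP-Glo luminescence as the activity measure.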

[5] = read-out: EGFR Wildtyp- 2 mM ATP IC50 [mol/l] (median)
[6] = EGFR Wildtyp- 2 mM ATP IC50 [mol/l] (median)

SMILES	IC50 (human CSNK1D)	IC50 (human CSNK1A1 [1])	IC50 [2, 5]	IC50 (human CSNK1A1 [3])	IC50 (human CSNK1A1 [4])	IC50 [2, 6]
Cc1cc(CC(=O)Nc2cc(-c3[nH]c4c(c3Nc3ccccc3)C(=O)N(C)CC4)ccn2)ccc1F [Example 3, N-[4-(3-anilino-5-methyl-4-oxo-4,5,6,7-tetrahydro-1H-pyrrolo[3,2-c]pyridin-2-yl)pyridin-2-yl]-2-(4-fluoro-3-methylphenyl)acetamide]	5.66 nM	78.4 nM	2130 nM	4.28 nM	–	–
CN1CCc2[nH]c(-c3ccnc(NC(=O)Cc4ccc(F)cc4)c3)c(Nc3ccccn3)c2C1=O [Example 12, 2-(4-fluorophenyl)-N-(4-{5-methyl-4-oxo-3-[(pyridin-2-yl)amino]-4,5,6,7-tetrahydro-1H-pyrrolo[3,2-c]pyridin-2-yl}pyridin-2-yl)acetamide]	10.2 nM	5.2 nM	> 20000 nM	2.32 nM	–	–
CN1CCc2[nH]c(-c3ccnc(NC(=O)Cc4ccccc4)c3)c(Nc3ccccc3)c2C1=O [Example 2, N-[4-(3-anilino-5-methyl-4-oxo-4,5,6,7-tetrahydro-1H-pyrrolo[3,2-c]pyridin-2-yl)pyridin-2-yl]-2-phenylacetamide]	5.41 nM	114 nM	1170 nM	3.95 nM	–	–
CN1CCc2[nH]c(-c3ccnc(NC(=O)Cc4ccc(C(F)(F)F)cc4)c3)c(Nc3ccccc3)c2C1=O [Example 66, N-[4-(3-anilino-5-methyl-4-oxo-4,5,6,7-tetrahydro-1H-pyrrolo[3,2-c]pyridin-2-yl)pyridin-2-yl]-2-[4-(trifluoromethyl)phenyl]acetamide]	5.57 nM	33.5 nM	8550 nM	–	2.75 nM	–
CN1C(=O)c2c([nH]c(-c3ccnc(NC(=O)C(CC(F)F)c4ccc(F)cc4)c3)c2Nc2ccccc2F)CC1(C)C (single isomer, unassigned) [Example 47, 4,4-difluoro-N-{4-[3-(2-fluoroanilino)-5,6,6-trimethyl-4-oxo-4,5,6,7-tetrahydro-1H-pyrrolo[3,2-c]pyridin-2-yl]pyridin-2-yl}-2-(4-fluorophenyl)butanamide]	151 nM	> 20000 nM	> 20000 nM	–	163 nM	–
Cc1ccccc1Nc1c(-c2ccnc(NC(=O)C(CC(F)F)c3ccc(F)cc3)c2)[nH]c2c1C(=O)NC1(CCC1)C2 (racemic) [Example 143, 4,4-difluoro-2-(4-fluorophenyl)-N-{4-[3′-(2-methylanilino)-4′-oxo-1′,4′,5′,7′-tetrahydrospiro[cyclobutane-1,6′-pyrrolo[3,2-c]pyridin]-2′-yl]pyridin-2-yl}butanamide (Racemate)]	18.4 nM	32 nM	–	–	16.7 nM	> 20000 nM
CC1(C)Cc2[nH]c(-c3ccnc(NC(=O)C(CC(F)F)c4ccc(F)cc4)c3)c(Nc3cccc(F)n3)c2C(=O)N1 (single isomer, unassigned; enantiomer 2) [Example 130, 4,4-difluoro-2-(4-fluorophenyl)-N-(4-{3-[(6-fluoropyridin-2-yl)amino]-6,6-dimethyl-4-oxo-4,5,6,7-tetrahydro-1H-pyrrolo[3,2-c]pyridin-2-yl}pyridin-2-yl)butanamide (Enantiomer 2)]	71.6 nM	1340 nM	> 20000 nM	–	26.7 nM	–
CCN1CCc2[nH]c(-c3ccnc(NC(=O)C(C)c4ccc(F)cc4)c3)c(Nc3ccccc3)c2C1=O (single isomer, unassigned) [Example 25, N-[4-(3-anilino-5-ethyl-4-oxo-4,5,6,7-tetrahydro-1H-pyrrolo[3,2-c]pyridin-2-yl)pyridin-2-yl]-2-(4-fluorophenyl)propanamide]	88.6 nM	12700 nM and > 20000 nM	–	–	55.4 nM	> 20000 nM
O=C(Cc1ccc(F)cc1)Nc1cc(-c2[nH]c3c(c2Nc2cccc(F)c2Cl)C(=O)NC2(CCC2)C3)ccn1 [Example 122, N-{4-[3′-(2-chloro-3-fluoroanilino)-4′-oxo-1′,4′,5′,7′-tetrahydrospiro[cyclobutane-1,6′-pyrrolo[3,2-c]pyridin]-2′-yl]pyridin-2-yl}-2-(4-fluorophenyl)acetamide]	4.71 nM	26.8 nM	2150 nM	–	4.12 nM	–
CN1CCc2[nH]c(-c3ccnc(NC(=O)Cc4c(F)cc(F)cc4F)c3)c(Nc3ccccc3)c2C1=O [Example 164, N-[4-(3-anilino-5-methyl-4-oxo-4,5,6,7-tetrahydro-1H-pyrrolo[3,2-c]pyridin-2-yl)pyridin-2-yl]-2-(2,4,6-trifluorophenyl)acetamide]	3.08 nM	149 nM	419 nM	–	3.83 nM	–
